The numbers were not newly measured in patent US12507891B2 (priority 2020, dated 2025), which cites them from elsewhere.

For this data set the following is noted: incrementally increased propofol hypnosis.

Each structure is given as a SMILES string.

On to `CC(C)c1cccc(C(C)C)c1O` [propofol], for which the “PUAL under propofol hypnosis” value is recorded as “PUAL values remain within normal ranges until a subject becomes completely unresponsive”.
